Test results published in ChEMBL document CHEMBL1148306, “Reducing the peptidyl features of caspase-3 inhibitors: a structural analysis” (J Med Chem, 2004).

Target: T1, Caspase-3 (Homo sapiens, UniProt P42574)
T1 sequence (P42574 whole entry): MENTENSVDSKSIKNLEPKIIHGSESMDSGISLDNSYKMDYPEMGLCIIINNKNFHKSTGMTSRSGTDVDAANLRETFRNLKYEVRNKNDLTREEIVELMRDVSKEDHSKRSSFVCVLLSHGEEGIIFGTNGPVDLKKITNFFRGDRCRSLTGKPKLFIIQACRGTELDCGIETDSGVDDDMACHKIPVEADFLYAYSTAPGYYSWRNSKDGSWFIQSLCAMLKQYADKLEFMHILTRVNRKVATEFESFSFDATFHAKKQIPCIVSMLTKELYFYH
Assay: Inhibitory concentration of compound against caspase-3

## COc1ccc(Br)cc1CC(=O)N[C@H](C(=O)N[C@@H](CC(=O)O)C(=O)CSCc1ccccc1)C(C)C
  IC50: 17.7 nM
